Measured values published in patent publication US20070049564A1 (Wyeth, priority 2005, published 2007).
In brackets after ≈: the same amount, converted by molar mass. Where two headings read alike, the source gives them in different places.

Key:
Experiment in all cases: MIC, broth microdilution
S. aureus GC 6469 = settings: Staphylococcus aureus
E. coli GC 2234 = settings: Escherichia coli
E. coli GC 2203 = settings: Escherichia coli
E. coli GC 2235 = settings: Escherichia coli
E. coli GC 6465 = settings: Escherichia coli
E. coli GC 4560 = settings: Escherichia coli
E. faecium GC 4556 = settings: Enterococcus faecium
S. aureus GC 6466 = settings: Staphylococcus aureus
S. aureus GC 6467 = settings: Staphylococcus aureus
E. coli GC 3226 = settings: Escherichia coli
E. coli GC 4559 = settings: Escherichia coli
S. agalactiae GC 4564 = settings: Streptococcus agalactiae
S. pyogenes GC 4563 = settings: Streptococcus pyogenes
E. coli GC 2271 = settings: Escherichia coli
E. coli GC 1073 = settings: Escherichia coli
E. coli GC 2270 = settings: Escherichia coli
S. typhimurium GC 2172 = settings: Salmonella enterica, TYPHIMURIUM
E. coli GC 2233 = settings: Escherichia coli
S. aureus GC 1079 = settings: Staphylococcus aureus
S. aureus GC 6335 = settings: Staphylococcus aureus

CN(C)c1cc(NC(=O)CN(C(=O)OCOC(=O)c2ccc(C(C)(C)C)cc2)C(C)(C)C)c(O)c2c1C[C@H]1C[C@H]3[C@H](N(C)C)C(O)=C(C(N)=O)C(=O)[C@@]3(O)C(O)=C1C2=O [Example 43, ({[(2-{[(5aR,6aS,7S,10aS)-9-(aminocarbonyl)-4,7-bis(dimethylamino)-1,8,10a,11-tetrahydroxy-10,12-dioxo-5,5a,6,6a,7,10,10a,12-octahydrotetracen-2-yl]amino}-2-oxoethyl)(tert-butyl)amino]carbonyl}oxy)methyl 4-tert-butylbenzoate]
MIC (S. aureus GC 6469; GC6469, read-out: MINIMAL INHIBITORY CONCENTRATION MIC, pre-incubated in Human Serum): 32 mg/L (≈ 39 µM)
MIC (S. aureus GC 6469; GC6469, read-out: MINIMAL INHIBITORY CONCENTRATION MIC, pre-incubated in Mouse Serum): 1 mg/L (≈ 1.22 µM)
MIC (S. aureus GC 6469; GC6469, read-out: MINIMAL INHIBITORY CONCENTRATION MIC, pre-incubated in Water): > 64 mg/L
MIC (E. coli GC 2234; GC2234, read-out: MINIMAL INHIBITORY CONCENTRATION MIC, pre-incubated in Human Serum): > 64 mg/L
MIC (E. coli GC 2234; GC2234, read-out: MINIMAL INHIBITORY CONCENTRATION MIC, pre-incubated in Mouse Serum): 0.25 mg/L (≈ 0.305 µM)
MIC (E. coli GC 2234; GC2234, read-out: MINIMAL INHIBITORY CONCENTRATION MIC, pre-incubated in Water): > 64 mg/L
MIC (E. coli GC 2203; GC2203, read-out: MINIMAL INHIBITORY CONCENTRATION MIC, pre-incubated in Human Serum): > 64 mg/L
MIC (E. coli GC 2203; GC2203, read-out: MINIMAL INHIBITORY CONCENTRATION MIC, pre-incubated in Mouse Serum): 0.5 mg/L (≈ 0.61 µM)
MIC (E. coli GC 2203; GC2203, read-out: MINIMAL INHIBITORY CONCENTRATION MIC, pre-incubated in Water): > 64 mg/L
MIC (E. coli GC 2235; GC2235, read-out: MINIMAL INHIBITORY CONCENTRATION MIC, pre-incubated in Human Serum): > 64 mg/L
MIC (E. coli GC 2235; GC2235, read-out: MINIMAL INHIBITORY CONCENTRATION MIC, pre-incubated in Mouse Serum): 0.25 mg/L (≈ 0.305 µM)
MIC (E. coli GC 2235; GC2235, read-out: MINIMAL INHIBITORY CONCENTRATION MIC, pre-incubated in Water): > 64 mg/L
MIC (E. coli GC 6465; GC6465, read-out: MINIMAL INHIBITORY CONCENTRATION MIC, pre-incubated in Human Serum): > 64 mg/L
MIC (E. coli GC 6465; GC6465, read-out: MINIMAL INHIBITORY CONCENTRATION MIC, pre-incubated in Mouse Serum): 2 mg/L (≈ 2.44 µM)
MIC (E. coli GC 6465; GC6465, read-out: MINIMAL INHIBITORY CONCENTRATION MIC, pre-incubated in Water): > 64 mg/L
MIC (E. coli GC 4560; GC4560, read-out: MINIMAL INHIBITORY CONCENTRATION MIC, pre-incubated in Human Serum): 16 mg/L (≈ 19.5 µM)
MIC (E. coli GC 4560; GC4560, read-out: MINIMAL INHIBITORY CONCENTRATION MIC, pre-incubated in Mouse Serum): < 0.06 mg/L
MIC (E. coli GC 4560; GC4560, read-out: MINIMAL INHIBITORY CONCENTRATION MIC, pre-incubated in Water): 32 mg/L (≈ 39 µM)
MIC (E. faecium GC 4556; GC4556, read-out: MINIMAL INHIBITORY CONCENTRATION MIC, pre-incubated in Human Serum): 8 mg/L (≈ 9.76 µM)
MIC (E. faecium GC 4556; GC4556, read-out: MINIMAL INHIBITORY CONCENTRATION MIC, pre-incubated in Mouse Serum): 0.5 mg/L (≈ 0.61 µM)
MIC (E. faecium GC 4556; GC4556, read-out: MINIMAL INHIBITORY CONCENTRATION MIC, pre-incubated in Water): 16 mg/L (≈ 19.5 µM)
MIC (S. aureus GC 6466; GC6466, read-out: MINIMAL INHIBITORY CONCENTRATION MIC, pre-incubated in Human Serum): 16 mg/L (≈ 19.5 µM)
MIC (S. aureus GC 6466; GC6466, read-out: MINIMAL INHIBITORY CONCENTRATION MIC, pre-incubated in Mouse Serum): 0.5 mg/L (≈ 0.61 µM)
MIC (S. aureus GC 6466; GC6466, read-out: MINIMAL INHIBITORY CONCENTRATION MIC, pre-incubated in Water): 64 mg/L (≈ 78.1 µM)
MIC (S. aureus GC 6467; GC6467, read-out: MINIMAL INHIBITORY CONCENTRATION MIC, pre-incubated in Human Serum): 32 mg/L (≈ 39 µM)
MIC (S. aureus GC 6467; GC6467, read-out: MINIMAL INHIBITORY CONCENTRATION MIC, pre-incubated in Mouse Serum): 0.5 mg/L (≈ 0.61 µM)
MIC (S. aureus GC 6467; GC6467, read-out: MINIMAL INHIBITORY CONCENTRATION MIC, pre-incubated in Water): > 64 mg/L
MIC (E. coli GC 3226; GC3226, read-out: MINIMAL INHIBITORY CONCENTRATION MIC, pre-incubated in Human Serum): > 64 mg/L
MIC (E. coli GC 3226; GC3226, read-out: MINIMAL INHIBITORY CONCENTRATION MIC, pre-incubated in Mouse Serum): 1 mg/L (≈ 1.22 µM)
MIC (E. coli GC 3226; GC3226, read-out: MINIMAL INHIBITORY CONCENTRATION MIC, pre-incubated in Water): > 64 mg/L
MIC (E. coli GC 4559; GC4559, read-out: MINIMAL INHIBITORY CONCENTRATION MIC, pre-incubated in Human Serum): > 64 mg/L
MIC (E. coli GC 4559; GC4559, read-out: MINIMAL INHIBITORY CONCENTRATION MIC, pre-incubated in Mouse Serum): 0.5 mg/L (≈ 0.61 µM)
MIC (E. coli GC 4559; GC4559, read-out: MINIMAL INHIBITORY CONCENTRATION MIC, pre-incubated in Water): > 64 mg/L
MIC (S. agalactiae GC 4564; GC4564, read-out: MINIMAL INHIBITORY CONCENTRATION MIC, pre-incubated in Human Serum): 2 mg/L (≈ 2.44 µM)
MIC (S. agalactiae GC 4564; GC4564, read-out: MINIMAL INHIBITORY CONCENTRATION MIC, pre-incubated in Mouse Serum): < 0.06 mg/L
MIC (S. agalactiae GC 4564; GC4564, read-out: MINIMAL INHIBITORY CONCENTRATION MIC, pre-incubated in Water): 2 mg/L (≈ 2.44 µM)
MIC (S. pyogenes GC 4563; GC4563, read-out: MINIMAL INHIBITORY CONCENTRATION MIC, pre-incubated in Human Serum): < 0.06 mg/L
MIC (S. pyogenes GC 4563; GC4563, read-out: MINIMAL INHIBITORY CONCENTRATION MIC, pre-incubated in Mouse Serum): < 0.06 mg/L
MIC (S. pyogenes GC 4563; GC4563, read-out: MINIMAL INHIBITORY CONCENTRATION MIC, pre-incubated in Water): < 0.06 mg/L
MIC (E. coli GC 2271; GC2271, read-out: MINIMAL INHIBITORY CONCENTRATION MIC, pre-incubated in Human Serum): > 64 mg/L
MIC (E. coli GC 2271; GC2271, read-out: MINIMAL INHIBITORY CONCENTRATION MIC, pre-incubated in Mouse Serum): 0.25 mg/L (≈ 0.305 µM)
MIC (E. coli GC 2271; GC2271, read-out: MINIMAL INHIBITORY CONCENTRATION MIC, pre-incubated in Water): > 64 mg/L
MIC (E. coli GC 1073; GC1073, read-out: MINIMAL INHIBITORY CONCENTRATION MIC, pre-incubated in Human Serum): > 64 mg/L
MIC (E. coli GC 1073; GC1073, read-out: MINIMAL INHIBITORY CONCENTRATION MIC, pre-incubated in Mouse Serum): 0.5 mg/L (≈ 0.61 µM)
MIC (E. coli GC 1073; GC1073, read-out: MINIMAL INHIBITORY CONCENTRATION MIC, pre-incubated in Water): > 64 mg/L
MIC (E. coli GC 2270; GC2270, read-out: MINIMAL INHIBITORY CONCENTRATION MIC, pre-incubated in Human Serum): > 64 mg/L
MIC (E. coli GC 2270; GC2270, read-out: MINIMAL INHIBITORY CONCENTRATION MIC, pre-incubated in Mouse Serum): 0.25 mg/L (≈ 0.305 µM)
MIC (E. coli GC 2270; GC2270, read-out: MINIMAL INHIBITORY CONCENTRATION MIC, pre-incubated in Water): > 64 mg/L
MIC (S. typhimurium GC 2172; read-out: MINIMAL INHIBITORY CONCENTRATION MIC, pre-incubated in Human Serum): > 64 mg/L
MIC (S. typhimurium GC 2172; read-out: MINIMAL INHIBITORY CONCENTRATION MIC, pre-incubated in Mouse Serum): 2 mg/L (≈ 2.44 µM)
MIC (S. typhimurium GC 2172; read-out: MINIMAL INHIBITORY CONCENTRATION MIC, pre-incubated in Water): > 64 mg/L
MIC (E. coli GC 2233; GC2233, read-out: MINIMAL INHIBITORY CONCENTRATION MIC, pre-incubated in Human Serum): > 64 mg/L
MIC (E. coli GC 2233; GC2233, read-out: MINIMAL INHIBITORY CONCENTRATION MIC, pre-incubated in Mouse Serum): 0.5 mg/L (≈ 0.61 µM)
MIC (E. coli GC 2233; GC2233, read-out: MINIMAL INHIBITORY CONCENTRATION MIC, pre-incubated in Water): > 64 mg/L
MIC (S. aureus GC 1079; GC1079, read-out: MINIMAL INHIBITORY CONCENTRATION MIC, pre-incubated in Human Serum): 32 mg/L (≈ 39 µM)
MIC (S. aureus GC 1079; GC1079, read-out: MINIMAL INHIBITORY CONCENTRATION MIC, pre-incubated in Mouse Serum): 1 mg/L (≈ 1.22 µM)
MIC (S. aureus GC 1079; GC1079, read-out: MINIMAL INHIBITORY CONCENTRATION MIC, pre-incubated in Water): 64 mg/L (≈ 78.1 µM)
MIC (S. aureus GC 6335; GC6335, read-out: MINIMAL INHIBITORY CONCENTRATION MIC, pre-incubated in Human Serum): 64 mg/L (≈ 78.1 µM)
MIC (S. aureus GC 6335; GC6335, read-out: MINIMAL INHIBITORY CONCENTRATION MIC, pre-incubated in Mouse Serum): 1 mg/L (≈ 1.22 µM)
MIC (S. aureus GC 6335; GC6335, read-out: MINIMAL INHIBITORY CONCENTRATION MIC, pre-incubated in Water): 64 mg/L (≈ 78.1 µM)
